Assay results reported in patent publication US12202835B2, “Substituted aromatic ring-linked dioxinoquinazolines and dioxinoquinolines as kinase inhibitors” (BEIJING SCITECH-MQ PHARMACEUTICALS LIMITED, priority 2018, dated 2025).

How the values were obtained:
MER kinase = MER kinase (Homo sapiens (Human), UniProt Q12866); assay: Assay of small molecular compounds for inhibiting the activity of MER kinase (LANCE TR-FRET); assay type: biochemical
Method in brief: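 MER kinase preincubated 5 min at RT with compound (11 points, 0.042-2500 nM final), then ULight-poly GT and ATP added (4× stocks 200 nM and 20 μM) for 60 min at RT, 1% DMSO. Phosphorylation detected by LANCE TR-FRET; IC50 from % inhibition versus controls.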

c-MET kinase = c-MET kinase (Homo sapiens (Human), UniProt P08581); assay: Assay of small molecular compounds for inhibiting the activity of c-MET kinase (LANCE TR-FRET); assay type: biochemical; details: read-out: CMET IC50
Sequence of c-MET kinase (P08581 25-1390): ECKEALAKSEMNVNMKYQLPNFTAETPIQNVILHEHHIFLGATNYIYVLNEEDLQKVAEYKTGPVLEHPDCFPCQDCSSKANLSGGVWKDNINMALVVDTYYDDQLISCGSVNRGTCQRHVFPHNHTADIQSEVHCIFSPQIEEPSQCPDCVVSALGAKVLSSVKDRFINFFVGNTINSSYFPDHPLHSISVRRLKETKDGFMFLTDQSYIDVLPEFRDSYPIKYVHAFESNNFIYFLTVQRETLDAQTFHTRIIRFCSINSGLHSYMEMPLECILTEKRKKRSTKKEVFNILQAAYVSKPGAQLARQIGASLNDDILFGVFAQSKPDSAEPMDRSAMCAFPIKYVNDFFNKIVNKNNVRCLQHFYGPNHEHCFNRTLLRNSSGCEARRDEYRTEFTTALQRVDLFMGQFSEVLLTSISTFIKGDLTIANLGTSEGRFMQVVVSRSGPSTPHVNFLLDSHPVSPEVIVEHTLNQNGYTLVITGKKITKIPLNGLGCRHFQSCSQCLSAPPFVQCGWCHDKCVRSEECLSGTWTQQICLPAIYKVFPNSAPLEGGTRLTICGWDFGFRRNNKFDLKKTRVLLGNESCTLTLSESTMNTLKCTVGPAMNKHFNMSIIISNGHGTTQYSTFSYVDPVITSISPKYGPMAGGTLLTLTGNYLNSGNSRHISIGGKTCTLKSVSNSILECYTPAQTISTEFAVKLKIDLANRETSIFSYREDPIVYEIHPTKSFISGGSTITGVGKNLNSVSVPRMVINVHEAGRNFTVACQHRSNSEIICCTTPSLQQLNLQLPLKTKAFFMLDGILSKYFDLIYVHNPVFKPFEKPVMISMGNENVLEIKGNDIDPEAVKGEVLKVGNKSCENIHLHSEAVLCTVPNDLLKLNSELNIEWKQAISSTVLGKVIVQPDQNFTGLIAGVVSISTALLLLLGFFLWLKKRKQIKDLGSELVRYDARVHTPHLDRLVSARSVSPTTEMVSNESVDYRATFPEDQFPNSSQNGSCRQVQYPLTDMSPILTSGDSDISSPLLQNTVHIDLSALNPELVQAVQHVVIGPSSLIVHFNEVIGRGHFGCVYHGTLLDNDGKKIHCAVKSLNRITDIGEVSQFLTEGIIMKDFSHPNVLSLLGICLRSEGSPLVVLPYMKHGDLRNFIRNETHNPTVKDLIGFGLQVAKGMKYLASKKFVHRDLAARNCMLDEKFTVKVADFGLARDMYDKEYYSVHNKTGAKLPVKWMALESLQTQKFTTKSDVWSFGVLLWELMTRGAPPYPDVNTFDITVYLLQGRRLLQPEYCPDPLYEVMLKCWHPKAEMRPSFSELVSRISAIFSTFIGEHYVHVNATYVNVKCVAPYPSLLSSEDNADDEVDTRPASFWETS
Method in brief: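 LANCE TR-FRET assay with c-MET at 1 nM final after a 5 min room-temperature preincubation with compound (11-point, 3-fold series, 2500–0.042 nM final, 4% DMSO). ULight-JAK-1 (Tyr1023) peptide (100 nM final) and ATP (10 μM final) reacted 60 min in the dark. Inhibition was taken relative to controls, then IC50 fitted.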

Sequence of MER kinase (Q12866 21-999): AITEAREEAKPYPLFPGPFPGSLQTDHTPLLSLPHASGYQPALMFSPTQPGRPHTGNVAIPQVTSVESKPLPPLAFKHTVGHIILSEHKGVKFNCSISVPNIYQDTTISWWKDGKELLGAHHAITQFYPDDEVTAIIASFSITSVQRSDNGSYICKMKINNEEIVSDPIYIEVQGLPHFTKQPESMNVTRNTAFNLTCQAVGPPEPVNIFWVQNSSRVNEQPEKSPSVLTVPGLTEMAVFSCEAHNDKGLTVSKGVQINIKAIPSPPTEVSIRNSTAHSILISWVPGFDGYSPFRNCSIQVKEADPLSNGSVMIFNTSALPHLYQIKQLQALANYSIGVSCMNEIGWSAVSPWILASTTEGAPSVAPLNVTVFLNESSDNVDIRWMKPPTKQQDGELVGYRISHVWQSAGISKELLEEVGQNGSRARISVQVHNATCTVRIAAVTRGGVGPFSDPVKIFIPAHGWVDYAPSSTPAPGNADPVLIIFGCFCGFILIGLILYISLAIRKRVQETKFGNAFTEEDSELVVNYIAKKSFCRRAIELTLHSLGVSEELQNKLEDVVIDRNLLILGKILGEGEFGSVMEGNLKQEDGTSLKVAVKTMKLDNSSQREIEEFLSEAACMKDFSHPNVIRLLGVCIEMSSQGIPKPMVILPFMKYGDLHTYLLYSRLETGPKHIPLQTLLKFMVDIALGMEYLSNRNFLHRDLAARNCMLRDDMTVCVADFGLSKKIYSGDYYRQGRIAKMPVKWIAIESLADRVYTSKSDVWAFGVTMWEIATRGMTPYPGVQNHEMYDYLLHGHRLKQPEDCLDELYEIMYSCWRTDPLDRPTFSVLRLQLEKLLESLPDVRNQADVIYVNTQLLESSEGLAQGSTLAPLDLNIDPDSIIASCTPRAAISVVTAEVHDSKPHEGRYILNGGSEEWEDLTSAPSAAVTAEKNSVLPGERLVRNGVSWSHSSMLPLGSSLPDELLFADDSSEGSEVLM

IC50 (MER kinase) [nM]	IC50 (c-MET kinase) [nM]	Structure (SMILES)
≤ 50	≤ 50	O=C(Nc1ccc(Oc2ccnc3ccc4c(c23)OCCO4)c(F)c1)c1cccn(-c2ccc(F)cc2)c1=O [Example 169, N-(4-((2,3-dihydro-[1,4]dioxino[2,3-f]quinolin-10-yl)oxy)-3-fluorophenyl)-1-(4-fluorophenyl)-2-oxo-1,2-dihydropyridine-3-carboxamide]
≤ 50	≤ 50	COc1ccn(-c2ccc(F)cc2)c(=O)c1C(=O)Nc1ccc(Oc2ccnc3cc(OCC(C)(C)O)c4c(c23)OCCO4)cc1Cl [Example 140, N-(2-chloro-4-((5-(2-hydroxy-2-methylpropoxy)-2,3-dihydro-[1,4]dioxino[2,3-f]quinolin-10-yl)oxy)phenyl)-1-(4-fluorophenyl)-4-methoxy-2-oxo-1,2-dihydropyridine-3-carboxamide]
≤ 50	≤ 50	COc1cc2nccc(Oc3ccc(NC(=O)c4cn(CC(=O)O)c(=O)n(-c5ccc(F)cc5)c4=O)cc3F)c2c2c1OCCO2 [Example 104, 2-(5-((3-fluoro-4-((5-methoxy-2,3-dihydro-[1,4]dioxino[2,3-f]quinolin-10-yl)oxy)phenyl)carbamoyl)-3-(4-fluorophenyl)-2,4-dioxo-3,4-dihydropyrimidin-1(2H)-yl)acetic acid]
≤ 50	≤ 50	CC(C)n1cc(C(=O)Nc2ccc(Oc3ccnc4cc(OCCCN5CCOCC5)c5c(c34)OCCO5)c(F)c2)c(=O)n(-c2ccc(F)cc2)c1=O [Example 16, N-(3-fluoro-4-((5-(3-morpholinopropoxy)-2,3-dihydro-[1,4]dioxino[2,3-f]quinolin-10-yl)oxy)phenyl)-3-(4-fluorophenyl)-1-isopropyl-2,4-dioxo-1,2,3,4-tetrahydropyrimidine-5-carboxamide]
≤ 50	50 to 500	CC(C)n1cc(C(=O)Nc2ccc(Oc3ccnc4cc(OCCCN5CCOCC5)c5c(c34)OCCO5)c(Cl)c2)c(=O)n(-c2ccc(F)cc2)c1=O [Example 97, N-(3-chloro-4-((5-(3-morpholinopropoxy)-2,3-dihydro-[1,4]dioxino[2,3-f]quinolin-10-yl)oxy)phenyl)-3-(4-fluorophenyl)-1-isopropyl-2,4-dioxo-1,2,3,4-tetrahydropyrimidine-5-carboxamide]
≤ 50	≤ 50	O=C(Nc1ccc(Oc2ccnc3cc(OCCCN4CCOCC4)c4c(c23)OCCO4)cc1Cl)c1cccn(-c2ccc(F)cc2)c1=O [Example 143, N-(2-chloro-4-((5-(3-morpholinopropoxy)-2,3-dihydro-[1,4]dioxino[2,3-f]quinolin-10-yl)oxy)phenyl)-1-(4-fluorophenyl)-2-oxo-1,2-dihydropyridine-3-carboxamide]
≤ 50	≤ 50	CC(C)(O)COc1cc2nccc(Oc3ccc(NC(=O)c4cccn(-c5ccc(F)cc5)c4=O)c(Cl)c3)c2c2c1OCCO2 [Example 139, N-(2-chloro-4-((5-(2-hydroxy-2-methylpropoxy)-2,3-dihydro-[1,4]dioxino[2,3-f]quinolin-10-yl)oxy)phenyl)-1-(4-fluorophenyl)-2-oxo-1,2-dihydropyridine-3-carboxamide]
≤ 50	50 to 500	Cn1cc(C(=O)Nc2ccc(Oc3ccnc4cc(OCCCN5CCOCC5)c5c(c34)OCCO5)cc2Cl)c(=O)n(-c2ccc(F)cc2)c1=O [Example 98, N-(2-chloro-4-((5-(3-morpholinopropoxy)-2,3-dihydro-[1,4]dioxino[2,3-f]quinolin-10-yl)oxy)phenyl)-3-(4-fluorophenyl)-1-methyl-2,4-dioxo-1,2,3,4-tetrahydropyrimidine-5-carboxamide]
≤ 50	≤ 50	COc1ccn(-c2ccc(F)cc2)c(=O)c1C(=O)Nc1ccc(Oc2ccnc3cc(OCCCC#N)c4c(c23)OCCO4)cc1Cl [Example 132, N-(2-chloro-4-((5-(3-cyanopropoxy)-2,3-dihydro-[1,4]dioxino[2,3-f]quinolin-10-yl)oxy)phenyl)-1-(4-fluorophenyl)-4-methoxy-2-oxo-1,2-dihydropyridine-3-carboxamide]
